Reference: ChEMBL document CHEMBL5247677, “N-Aryl Indoles as a Novel Class of Potent NaV1.7 Inhibitors” (ACS Med Chem Lett, 2023)
In brackets after ≈: the same amount, converted by molar mass. Activity calls are given as the source filed them. The calls are words filed in the database; no cut-off is given here.

Key:
[1] = biological target: Sodium channel protein type 9 subunit alpha/beta-1/beta-2 (Homo sapiens, UniProt Q15858); assay: Inhibition of human Nav1.7/beta1/2 transfected in HEK293-A cells assessed as inhibition of channel current incubated for 5.5 mins by high-throughput electrophysiology system analysis; type: cell-based
[2] = biological target: Sodium channel protein type 9 subunit alpha/beta-1/beta-2 (Mus musculus, UniProt Q62205); assay: Inhibition of mouse Nav1.7/beta1/2 transfected in HEK293-A cells assessed as inhibition of channel current incubated for 5.5 mins by high-throughput electrophysiology system analysis; type: cell-based
[3] = biological target: Sodium channel protein type 1 subunit alpha/beta-1/beta-2 (Homo sapiens, UniProt P35498); assay: Inhibition of human Nav1.1/beta1/2 transfected in HEK293-A cells assessed as inhibition of channel current incubated for 5.5 mins by high-throughput electrophysiology system analysis; type: toxicity, cell-based
[4] = biological target: Sodium channel protein type 5 subunit alpha/beta-1/beta-2 (Homo sapiens, UniProt Q14524); assay: Inhibition of human Nav1.5/beta1/2 transfected in HEK293-A cells assessed as inhibition of channel current incubated for 5.5 mins by high-throughput electrophysiology system analysis; type: toxicity, cell-based
hERG (KCNH2) = hERG (KCNH2) (Homo sapiens, UniProt Q12809); assay: Inhibition of hERG at 100 uM; type: toxicity
[5] = 1-Octanol/PBS buffer distribution coefficient, log D of the compound at pH 7.4 by HPLC/LC-MS analysis; type: physicochemical
[6] = Aqueous thermodynamic solubility of the compound at pH 6.8 measured after 4 hrs by HPLC-UV analysis; type: physicochemical; details: read-out: Therm_solubility
[7] = Unbound fraction in mouse plasma; type: ADME, cell-free
Mus musculus [8] = assay: Analgesic activity against PSL-induced neuropathic pain mouse model assessed as reversal of thermal hyperalgesia at 1 mg/kg, po measured after 30 mins by plantar test; type: functional; details: 0.5 h
[9] = Cmax in ddY mouse at 1 mg/kg, po by LC-MS/MS analysis; type: ADME, organism-based; parameters: dose 1 mg/kg, route po; details: in vivo
[10] = Tmax in ddY mouse at 1 mg/kg, po by LC-MS/MS analysis; type: ADME, organism-based; details: in vivo
[11] = AUC(0 to 24 hrs) in ddY mouse at 1 mg/kg, po by LC-MS/MS analysis; type: ADME, organism-based; parameters: dose 1 mg/kg, route po; details: in vivo
[12] = Half life in ddY mouse at 1 mg/kg, po by LC-MS/MS analysis; type: ADME, organism-based; details: in vivo
[13] = Total body clearance in ddY mouse at 1 mg/kg, iv by LC-MS/MS analysis; type: ADME, organism-based; details: in vivo
[14] = Volume of distribution at steady state in ddY mouse at 1 mg/kg, iv by LC-MS/MS analysis; type: ADME, organism-based; details: in vivo, read-out: Vdss
[15] = Bioavailability in ddY mouse at 1 mg/kg, iv by LC-MS/MS analysis; type: ADME, organism-based; details: in vivo
[16] = Ratio of fCmax in ddY mouse plasma at 1 mg/kg, po to IC50 for inhibition of mouse Nav1.7/beta1/2 transfected in HEK293-A cells
[17] = Selectivity ratio of IC50 for mouse Nav1.7/beta1/2 transfected in HEK293-A cells to IC50 for human Nav1.7/beta1/2 transfected in HEK293-A cells; type: cell-based
[18] = Selectivity ratio of IC50 for human Nav1.1/beta1/2 transfected in HEK293-A cells to IC50 for human Nav1.7/beta1/2 transfected in HEK293-A cells
[19] = Selectivity ratio of IC50 for human Nav1.5/beta1/2 transfected in HEK293-A cells to IC50 for human Nav1.7/beta1/2 transfected in HEK293-A cells
Mus musculus [20] = assay: Analgesic activity against PSL-induced neuropathic pain mouse model assessed as reversal of thermal hyperalgesia at 1 mg/kg, po measured after 60 mins by plantar test; type: functional, organism-based
Mus musculus [21] = assay: Analgesic activity against PSL-induced neuropathic pain mouse model assessed as reversal of thermal hyperalgesia at 1 mg/kg, po measured after 180 mins by plantar test; type: functional, organism-based

hERG (KCNH2), sequence (Q12809 whole entry): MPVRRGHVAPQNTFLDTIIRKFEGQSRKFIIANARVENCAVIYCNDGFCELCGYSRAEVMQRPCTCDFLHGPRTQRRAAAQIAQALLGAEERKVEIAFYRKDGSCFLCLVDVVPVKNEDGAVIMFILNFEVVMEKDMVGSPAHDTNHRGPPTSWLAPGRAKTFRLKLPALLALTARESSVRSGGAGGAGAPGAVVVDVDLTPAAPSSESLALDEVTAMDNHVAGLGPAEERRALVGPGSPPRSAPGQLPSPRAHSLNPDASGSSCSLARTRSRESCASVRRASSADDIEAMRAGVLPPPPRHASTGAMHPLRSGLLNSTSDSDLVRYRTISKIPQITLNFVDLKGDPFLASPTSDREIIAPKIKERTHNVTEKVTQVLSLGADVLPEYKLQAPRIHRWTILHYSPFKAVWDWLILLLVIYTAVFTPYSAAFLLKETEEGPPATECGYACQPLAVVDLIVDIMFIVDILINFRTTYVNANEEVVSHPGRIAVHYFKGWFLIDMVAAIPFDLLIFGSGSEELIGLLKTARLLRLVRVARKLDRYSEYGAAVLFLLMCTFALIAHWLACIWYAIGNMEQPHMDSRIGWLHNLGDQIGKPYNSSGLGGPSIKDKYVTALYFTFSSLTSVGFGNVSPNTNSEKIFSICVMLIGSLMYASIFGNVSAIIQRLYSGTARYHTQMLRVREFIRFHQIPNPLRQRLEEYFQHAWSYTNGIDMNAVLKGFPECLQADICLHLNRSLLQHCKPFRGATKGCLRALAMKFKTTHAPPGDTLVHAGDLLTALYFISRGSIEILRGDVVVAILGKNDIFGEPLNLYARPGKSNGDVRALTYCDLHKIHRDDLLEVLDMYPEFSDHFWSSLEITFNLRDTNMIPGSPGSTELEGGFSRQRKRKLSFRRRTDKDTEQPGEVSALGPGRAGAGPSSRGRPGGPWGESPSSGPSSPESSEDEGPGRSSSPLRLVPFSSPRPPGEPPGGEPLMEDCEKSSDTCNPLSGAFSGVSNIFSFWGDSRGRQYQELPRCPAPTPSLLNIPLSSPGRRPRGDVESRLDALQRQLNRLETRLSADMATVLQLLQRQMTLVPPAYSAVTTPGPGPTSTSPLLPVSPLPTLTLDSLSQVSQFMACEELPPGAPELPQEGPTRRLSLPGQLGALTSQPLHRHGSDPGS
Sodium channel protein type 9 subunit alpha/beta-1/beta-2 (Mus musculus, UniProt Q62205), sequence (Q62205 whole entry): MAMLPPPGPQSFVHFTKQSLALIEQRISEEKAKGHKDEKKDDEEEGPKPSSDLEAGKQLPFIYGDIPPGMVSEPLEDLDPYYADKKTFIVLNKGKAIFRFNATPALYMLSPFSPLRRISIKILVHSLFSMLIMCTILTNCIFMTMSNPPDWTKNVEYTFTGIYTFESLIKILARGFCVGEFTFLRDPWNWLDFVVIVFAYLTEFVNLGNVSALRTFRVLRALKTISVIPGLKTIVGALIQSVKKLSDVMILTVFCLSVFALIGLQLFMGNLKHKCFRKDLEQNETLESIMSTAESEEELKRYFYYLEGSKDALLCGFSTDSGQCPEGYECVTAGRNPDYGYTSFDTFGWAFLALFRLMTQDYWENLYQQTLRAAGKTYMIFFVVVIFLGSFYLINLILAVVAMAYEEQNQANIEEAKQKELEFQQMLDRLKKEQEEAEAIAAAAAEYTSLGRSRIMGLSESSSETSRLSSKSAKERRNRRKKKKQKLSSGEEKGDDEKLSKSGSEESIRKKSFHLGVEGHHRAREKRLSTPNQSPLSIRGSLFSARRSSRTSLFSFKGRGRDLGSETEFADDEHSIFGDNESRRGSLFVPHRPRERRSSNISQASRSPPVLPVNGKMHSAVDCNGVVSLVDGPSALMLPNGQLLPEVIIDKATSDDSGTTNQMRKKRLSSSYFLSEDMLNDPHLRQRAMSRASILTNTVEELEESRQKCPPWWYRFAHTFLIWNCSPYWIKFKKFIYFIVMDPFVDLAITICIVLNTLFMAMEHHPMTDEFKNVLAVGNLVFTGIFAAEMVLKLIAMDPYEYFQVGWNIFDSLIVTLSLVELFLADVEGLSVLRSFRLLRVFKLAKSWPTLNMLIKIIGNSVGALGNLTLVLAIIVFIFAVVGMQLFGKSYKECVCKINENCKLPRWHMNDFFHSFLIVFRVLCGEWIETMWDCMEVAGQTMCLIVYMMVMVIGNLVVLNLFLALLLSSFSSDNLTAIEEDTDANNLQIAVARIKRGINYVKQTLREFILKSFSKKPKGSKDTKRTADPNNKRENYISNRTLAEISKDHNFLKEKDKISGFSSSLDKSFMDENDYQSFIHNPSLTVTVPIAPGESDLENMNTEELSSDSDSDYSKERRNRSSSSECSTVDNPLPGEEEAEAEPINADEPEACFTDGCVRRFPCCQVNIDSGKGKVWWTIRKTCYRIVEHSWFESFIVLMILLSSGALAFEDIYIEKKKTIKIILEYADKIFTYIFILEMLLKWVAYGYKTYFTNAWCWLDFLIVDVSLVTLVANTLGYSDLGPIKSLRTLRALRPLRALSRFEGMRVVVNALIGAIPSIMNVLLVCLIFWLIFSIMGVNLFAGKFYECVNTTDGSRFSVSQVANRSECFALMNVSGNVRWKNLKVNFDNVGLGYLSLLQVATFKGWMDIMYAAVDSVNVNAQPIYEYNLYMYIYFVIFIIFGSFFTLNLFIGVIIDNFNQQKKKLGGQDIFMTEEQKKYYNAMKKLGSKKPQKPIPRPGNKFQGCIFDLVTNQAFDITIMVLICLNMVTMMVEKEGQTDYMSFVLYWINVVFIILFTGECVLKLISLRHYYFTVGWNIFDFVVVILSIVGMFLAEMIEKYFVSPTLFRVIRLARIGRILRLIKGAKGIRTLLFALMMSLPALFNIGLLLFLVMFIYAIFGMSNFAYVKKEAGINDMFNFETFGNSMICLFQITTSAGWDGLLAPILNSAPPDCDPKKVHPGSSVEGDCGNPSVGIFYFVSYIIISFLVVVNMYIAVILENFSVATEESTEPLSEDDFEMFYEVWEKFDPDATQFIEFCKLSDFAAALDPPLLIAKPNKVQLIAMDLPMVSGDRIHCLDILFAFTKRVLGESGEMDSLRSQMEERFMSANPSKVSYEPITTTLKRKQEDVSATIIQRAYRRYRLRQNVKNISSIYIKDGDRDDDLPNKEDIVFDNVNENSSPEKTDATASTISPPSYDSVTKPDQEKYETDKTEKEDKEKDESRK
Sodium channel protein type 9 subunit alpha/beta-1/beta-2 (Mus musculus, UniProt Q62205), sequence (P97952 whole entry, further chain): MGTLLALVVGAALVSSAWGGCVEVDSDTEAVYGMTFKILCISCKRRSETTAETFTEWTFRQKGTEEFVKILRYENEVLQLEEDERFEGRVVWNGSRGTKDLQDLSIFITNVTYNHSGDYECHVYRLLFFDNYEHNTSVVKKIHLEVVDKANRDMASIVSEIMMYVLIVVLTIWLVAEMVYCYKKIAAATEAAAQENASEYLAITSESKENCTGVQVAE
Sodium channel protein type 9 subunit alpha/beta-1/beta-2 (Mus musculus, UniProt Q62205), sequence (Q56A07 whole entry, further chain): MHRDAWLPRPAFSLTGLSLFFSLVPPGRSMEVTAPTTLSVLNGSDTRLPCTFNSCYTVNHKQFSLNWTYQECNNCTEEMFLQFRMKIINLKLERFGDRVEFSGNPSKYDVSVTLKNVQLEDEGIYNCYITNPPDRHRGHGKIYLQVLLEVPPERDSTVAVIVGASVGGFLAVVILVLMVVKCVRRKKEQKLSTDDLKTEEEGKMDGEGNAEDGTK

| Structure (SMILES) | IC50 [1] [nM] | IC50 [2] [nM] | IC50 [3] [µM] | IC50 [4] [µM] | inhibition at 100 µM (hERG (KCNH2)) [%] | logD [5] | solubility thermodynamic at 4 h [6] [µM] | fraction unbound [7] | other results |
| --- | --- | --- | --- | --- | --- | --- | --- | --- | --- |
| Cc1cn(-c2cccc(F)c2)c2ccc(C(=O)NS(=O)(=O)C3CC3)cc12 | 32 | 810 | 4.8 | 14 | 42.1 | 1.8 | 440 (≈ 164 µg/mL) | < 0.002 | Efficacy (Mus musculus [8]): 79%; Cmax [9]: 1700 nM; Tmax [10]: 1 h; AUC(0-t) [11]: 12.1 µM·h; half-life [12]: 300 min; clearance [13]: 2.58 mL/min/kg; Vd [14]: 0.57 L/kg; bioavailability [15]: 65%; Ratio [16]: <0.0042 |
| Cc1cn(-c2ccc(Cl)cc2)c2ccc(C(=O)NS(C)(=O)=O)cc12 | 260 | 7900 | > 100 | 23 | 51.1 | 1.8 | 26 (≈ 9.43 µg/mL) |  |  |
| CS(=O)(=O)NC(=O)c1ccc2c(ccn2Cc2ccccc2)c1 | > 10000 | > 10000 |  |  |  |  |  |  |  |
| Cc1cn(-c2ccccc2F)c2ccc(C(=O)NS(C)(=O)=O)cc12 | 5900 | 12000 |  | 100 |  |  |  |  |  |
| Cc1cn(-c2cccnc2)c2ccc(C(=O)NS(=O)(=O)C3CC3)cc12 | 1600 | > 10000 | > 100 | > 300 | -8.8 |  |  |  |  |
| Cc1cn(-c2cccc(F)c2)c2cc(F)c(C(=O)NS(C)(=O)=O)cc12 | 14 | 980 | > 100 | 31 | 15.6 | 0.8 | 430 (≈ 157 µg/mL) | < 0.002 |  |
| CS(=O)(=O)NC(=O)c1ccc2[nH]cc(-c3ccccc3)c2c1 | > 10000 | > 10000 |  |  |  |  |  |  |  |
| Cc1cn(-c2cccc(F)c2)c2ccc(C(=O)NS(C)(=O)=O)cc12 | 38 | 900 | 12 | 35 | 13.2 | 1.2 | 600 (≈ 208 µg/mL) | < 0.002 |  |
| Cc1cn(-c2cccnc2)c2ccc(C(=O)NS(C)(=O)=O)cc12 | > 10000 |  |  | > 300 | -0.1 |  |  |  |  |
| Cc1cn(-c2ccc(F)cc2)c2ccc(C(=O)NS(C)(=O)=O)cc12 | 190 | 2800 | 52 | 42 | 5.6 | 1.1 | 140 (≈ 48.5 µg/mL) | < 0.002 |  |
| Cc1cn(-c2ccccc2)c2ccc(C(=O)NS(C)(=O)=O)cc12 | 330 | 2700 | 80 | 79 | 17.1 | 1.1 | > 660 | < 0.002 | Ratio IC50 [17]: 10; Ratio IC50 [18]: 240; Ratio IC50 [19]: 240 |
| Cc1cn(-c2cccc(Cl)c2)c2ccc(C(=O)NS(C)(=O)=O)cc12 | 87 | 1700 | 20 | 34 | 43.5 | 1.8 | 620 (≈ 225 µg/mL) | < 0.002 |  |
| Cn1cc(-c2ccccc2)c2cc(C(=O)NS(C)(=O)=O)ccc21 | > 10000 | > 10000 |  |  |  |  |  |  |  |
| COc1cccc(-n2cc(C)c3cc(C(=O)NS(C)(=O)=O)ccc32)c1 | 190 | 2100 | 79 | 71 | 18.9 | 1.2 | 580 (≈ 208 µg/mL) | < 0.002 |  |
| CS(=O)(=O)NC(=O)c1cc(Cl)c(Oc2cnc(C3CC3)c(Cl)c2)cc1F | 52 | 1700 | 22 | 29 |  |  |  |  |  |
| Cc1cn(-c2cncc(Cl)c2)c2ccc(C(=O)NS(=O)(=O)C3CC3)cc12 | 85 | 460 | 9.9 | 107 | 34.1 | 0.8 | 35 (≈ 13.6 µg/mL) |  |  |
| Cc1cn(-c2ccc(C(F)(F)F)nc2)c2ccc(C(=O)NS(=O)(=O)C3CC3)cc12 | 59 | 1600 | > 100 | 210 | 21 | 1 | 29 (≈ 12.3 µg/mL) | 0.014 |  |
| Cc1cccc(-n2cc(C)c3cc(C(=O)NS(C)(=O)=O)ccc32)c1 | 58 | 1600 | 39 |  | 51 | 1.6 | 550 (≈ 188 µg/mL) |  |  |
| Cc1cn(-c2cccc(C(F)(F)F)c2)c2ccc(C(=O)NS(C)(=O)=O)cc12 | 34 | 680 | 20 | 27 | 49.8 | 1.7 | > 820 | 0.002 |  |
| Cc1cn(-c2cncc(C(F)(F)F)c2)c2cc(F)c(C(=O)NS(=O)(=O)C3CC3)cc12 | 40 | 15 | 1.2 | 32 | -2.9 | 0.6 | 25 (≈ 11 µg/mL) | 0.007 | Ratio IC50 [18]: 30; Efficacy (Mus musculus [8]): 64%; Activity (Mus musculus [20]): Active; Activity (Mus musculus [21]): inactive; Cmax [9]: 1400 nM; Tmax [10]: 6 h; AUC(0-t) [11]: 23.6 µM·h; half-life [12]: 810 min; Ratio [16]: 0.65 |
| Cc1cn(-c2cncc(F)c2)c2ccc(C(=O)NS(=O)(=O)C3CC3)cc12 | 860 | 2700 | > 100 | > 300 | -1.1 |  |  |  |  |
| CS(=O)(=O)NC(=O)c1ccc2c(ccn2-c2ccccc2)c1 | > 10000 | > 10000 |  |  |  |  |  |  |  |
